{"source": "patent US11053204B2", "about": "“Pyrimidinyloxy benzene derivatives as herbicides” (FMC Corporation, priority 2015, dated 2021)", "type_in_all_cases": "in vivo", "key": {"[1]": {"tested_on": "galium (catchweed bedstraw, Galium aparine)", "assay": "Test C preemergence, plant response rating"}, "[2]": {"tested_on": "johnsongrass (Sorghum halepense)", "assay": "Test C preemergence, plant response rating"}, "[3]": {"tested_on": "pigweed (Amaranthus retroflexus)", "assay": "Test C preemergence, plant response rating", "details": "Preemergence"}, "[4]": {"tested_on": "barnyardgrass (Echinochloa crus-galli)", "assay": "Test C preemergence, plant response rating", "details": "Echinochloa crus-galli, pre-emergence, Preemergence"}, "[5]": {"tested_on": "barnyardgrass (Echinochloa crus-galli)", "assay": "Test C postemergence, plant response rating", "details": "Echinochloa crus-galli, post-emergence", "procedure,_shortened": "(§1)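 Both timings shared one formulation, a non-phytotoxic solvent mixture with surfactant, and a greenhouse period of 13 to 15 d. Preemergence used seeded loam/sand or silt loam soil, postemergence used 2 to 18 cm plants; visual ratings ran from 0 (no effect) to 100 (complete control).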"}, "[6]": {"tested_on": "blackgrass (Alopecurus myosuroides)", "assay": "Test C postemergence, plant response rating", "details": "Alopecurus myosuroides, post-emergence", "procedure,_shortened": "as §1"}, "[7]": {"tested_on": "chickweed (common chickweed, Stellaria media)", "assay": "Test C postemergence, plant response rating", "details": "Stellaria media, post-emergence", "procedure,_shortened": "as §1"}, "[8]": {"tested_on": "lambsquarters (Chenopodium album)", "assay": "Test C postemergence, plant response rating", "details": "Chenopodium album, post-emergence", "procedure,_shortened": "as §1"}, "[9]": {"tested_on": "morningglory (Ipomoea coccinea)", "assay": "Test C postemergence, plant response rating", "details": "Ipomoea, post-emergence", "procedure,_shortened": "as §1"}, "[10]": {"tested_on": "nutsedge, yellow (yellow nutsedge, Cyperus esculentus)", "assay": "Test C postemergence, plant response rating", "details": "Cyperus, post-emergence", "procedure,_shortened": "as §1"}, "[11]": {"tested_on": "oat, wild (wild oat Avena fatua)", "assay": "Test C postemergence, plant response rating", "details": "Avena fatua, post-emergence", "procedure,_shortened": "as §1"}, "[12]": {"tested_on": "ragweed (common ragweed, Ambrosia elatior)", "assay": "Test C postemergence, plant response rating", "details": "Ambrosia artemisiifolia, post-emergence", "procedure,_shortened": "as §1"}, "[13]": {"tested_on": "ryegrass, Italian (Italian ryegrass, Lolium multiflorum)", "assay": "Test C postemergence, plant response rating", "details": "Lolium multiflorum, post-emergence", "procedure,_shortened": "as §1"}, "[14]": {"tested_on": "velvetleaf (Abutilon theophrasti)", "assay": "Test C postemergence, plant response rating", "details": "Abutilon theophrasti, post-emergence", "procedure,_shortened": "as §1"}, "[15]": {"tested_on": "wheat (winter wheat, Triticum aestivum)", "assay": "Test C postemergence, plant response rating", "details": "Triticum aestivum, post-emergence", "procedure,_shortened": "as §1"}, "[16]": {"details": "62 g ai/ha, scale 0 to 100 (0 no effect, 100 complete control)"}, "[17]": {"details": "125 g ai/ha, scale 0 to 100 (0 no effect, 100 complete control)"}}}
{"smiles": "O=C(OCCC(F)(F)F)c1c(Br)cccc1Oc1ncc(Cl)cn1", "note": "[Compound 26, 3,3,3-trifluoropropyl 2-bromo-6-[(5-chloro-2-pyrimidinyl)oxy]benzoate]", "values": [{"measurement": "Plant response rating, Galium", "setting": "[1]; 16 g ai/ha, scale 0 to 100", "result": 5}, {"measurement": "Plant response rating, Galium", "setting": "[1]; 31 g ai/ha, scale 0 to 100", "result": 90}, {"measurement": "Plant response rating, Galium", "setting": "[1]; 62 g ai/ha, scale of 0 to 100", "result": 95}, {"measurement": "Plant response rating, Galium", "setting": "[1]; 125 g ai/ha, scale of 0 to 100", "result": 100}, {"measurement": "Plant response rating, Johnsongrass", "setting": "[2]; 16 g ai/ha, scale 0 to 100", "result": 55}, {"measurement": "Plant response rating, Johnsongrass", "setting": "[2]; 31 g ai/ha, scale 0 to 100", "result": 50}, {"measurement": "Plant response rating, Johnsongrass", "setting": "[2]; 62 g ai/ha, scale 0 to 100", "result": 80}, {"measurement": "Plant response rating, Johnsongrass", "setting": "[2]; 125 g ai/ha, scale of 0 to 100", "result": 98}, {"measurement": "Plant response rating, Pigweed", "setting": "[3]; 125 g ai/ha, scale of 0 to 100", "result": 100}, {"measurement": "Plant response rating, Pigweed", "setting": "[3]; 16 g ai/ha, scale 0 to 100", "result": 100}, {"measurement": "Plant response rating, Pigweed", "setting": "[3]; 31 g ai/ha, scale 0 to 100", "result": 100}, {"measurement": "Plant response rating, Pigweed", "setting": "[3]; 62 g ai/ha, scale 0 to 100", "result": 100}, {"measurement": "pest or weed control at 62 g/ha", "setting": "[4]; 62 g ai/ha, scale of 0 to 100", "result": 100, "unit": "%"}, {"measurement": "pest or weed control at 125 g/ha", "setting": "[4]; 125 g ai/ha, scale of 0 to 100", "result": 100, "unit": "%"}, {"measurement": "pest or weed control at 16 g/ha", "setting": "[4]; 16 g ai/ha, scale 0 to 100", "result": 40, "unit": "%"}, {"measurement": "pest or weed control at 31 g/ha", "setting": "[4]; 31 g ai/ha, scale 0 to 100", "result": 75, "unit": "%"}, {"measurement": "pest or weed control at 16 g/ha", "setting": "[5]; 16 g ai/ha, scale 0 to 100", "result": 10, "unit": "%"}, {"measurement": "pest or weed control at 31 g/ha", "setting": "[5]; 31 g ai/ha, scale 0 to 100", "result": 10, "unit": "%"}, {"measurement": "pest or weed control at 62 g/ha", "setting": "[5]; [16]", "result": 20, "unit": "%"}, {"measurement": "pest or weed control at 125 g/ha", "setting": "[5]; [17]", "result": 30, "unit": "%"}, {"measurement": "pest or weed control at 16 g/ha", "setting": "[6]; 16 g ai/ha, scale 0 to 100", "result": 10, "unit": "%"}, {"measurement": "pest or weed control at 31 g/ha", "setting": "[6]; 31 g ai/ha, scale 0 to 100", "result": 15, "unit": "%"}, {"measurement": "pest or weed control at 62 g/ha", "setting": "[6]; [16]", "result": 15, "unit": "%"}, {"measurement": "pest or weed control at 125 g/ha", "setting": "[6]; [17]", "result": 35, "unit": "%"}, {"measurement": "pest or weed control at 16 g/ha", "setting": "[7]; 16 g ai/ha, scale 0 to 100", "result": 55, "unit": "%"}, {"measurement": "pest or weed control at 31 g/ha", "setting": "[7]; 31 g ai/ha, scale 0 to 100", "result": 80, "unit": "%"}, {"measurement": "pest or weed control at 62 g/ha", "setting": "[7]; [16]", "result": 85, "unit": "%"}, {"measurement": "pest or weed control at 125 g/ha", "setting": "[7]; [17]", "result": 98, "unit": "%"}, {"measurement": "pest or weed control at 16 g/ha", "setting": "[8]; 16 g ai/ha, scale 0 to 100", "result": 75, "unit": "%"}, {"measurement": "pest or weed control at 31 g/ha", "setting": "[8]; 31 g ai/ha, scale 0 to 100", "result": 90, "unit": "%"}, {"measurement": "pest or weed control at 62 g/ha", "setting": "[8]; [16]", "result": 98, "unit": "%"}, {"measurement": "pest or weed control at 125 g/ha", "setting": "[8]; [17]", "result": 98, "unit": "%"}, {"measurement": "pest or weed control at 16 g/ha", "setting": "[9]; 16 g ai/ha, scale 0 to 100", "result": 65, "unit": "%"}, {"measurement": "pest or weed control at 31 g/ha", "setting": "[9]; 31 g ai/ha, scale 0 to 100", "result": 60, "unit": "%"}, {"measurement": "pest or weed control at 62 g/ha", "setting": "[9]; [16]", "result": 65, "unit": "%"}, {"measurement": "pest or weed control at 125 g/ha", "setting": "[9]; [17]", "result": 85, "unit": "%"}, {"measurement": "pest or weed control at 16 g/ha", "setting": "[10]; 16 g ai/ha, scale 0 to 100", "result": 5, "unit": "%"}, {"measurement": "pest or weed control at 31 g/ha", "setting": "[10]; 31 g ai/ha, scale 0 to 100", "result": 10, "unit": "%"}, {"measurement": "pest or weed control at 62 g/ha", "setting": "[10]; [16]", "result": 10, "unit": "%"}, {"measurement": "pest or weed control at 125 g/ha", "setting": "[10]; [17]", "result": 10, "unit": "%"}, {"measurement": "pest or weed control at 16 g/ha", "setting": "[11]; 16 g ai/ha, scale 0 to 100", "result": 10, "unit": "%"}, {"measurement": "pest or weed control at 31 g/ha", "setting": "[11]; 31 g ai/ha, scale 0 to 100", "result": 10, "unit": "%"}, {"measurement": "pest or weed control at 62 g/ha", "setting": "[11]; [16]", "result": 15, "unit": "%"}, {"measurement": "pest or weed control at 125 g/ha", "setting": "[11]; [17]", "result": 35, "unit": "%"}, {"measurement": "pest or weed control at 16 g/ha", "setting": "[12]; 16 g ai/ha, scale 0 to 100", "result": 40, "unit": "%"}, {"measurement": "pest or weed control at 31 g/ha", "setting": "[12]; 31 g ai/ha, scale 0 to 100", "result": 55, "unit": "%"}, {"measurement": "pest or weed control at 62 g/ha", "setting": "[12]; [16]", "result": 55, "unit": "%"}, {"measurement": "pest or weed control at 125 g/ha", "setting": "[12]; [17]", "result": 90, "unit": "%"}, {"measurement": "pest or weed control at 16 g/ha", "setting": "[13]; 16 g ai/ha, scale 0 to 100", "result": 5, "unit": "%"}, {"measurement": "pest or weed control at 31 g/ha", "setting": "[13]; 31 g ai/ha, scale 0 to 100", "result": 5, "unit": "%"}, {"measurement": "pest or weed control at 62 g/ha", "setting": "[13]; [16]", "result": 10, "unit": "%"}, {"measurement": "pest or weed control at 125 g/ha", "setting": "[13]; [17]", "result": 10, "unit": "%"}, {"measurement": "pest or weed control at 16 g/ha", "setting": "[14]; 16 g ai/ha, scale 0 to 100", "result": 30, "unit": "%"}, {"measurement": "pest or weed control at 31 g/ha", "setting": "[14]; 31 g ai/ha, scale 0 to 100", "result": 55, "unit": "%"}, {"measurement": "pest or weed control at 62 g/ha", "setting": "[14]; 62 g ai/ha, scale 0 to 100 (0 no effect, 100 complete control), read-out: Velvetleaf plant response rating", "result": 75, "unit": "%"}, {"measurement": "pest or weed control at 125 g/ha", "setting": "[14]; [17]", "result": 80, "unit": "%"}, {"measurement": "plant injury at 16 g/ha", "setting": "[15]; 16 g ai/ha, scale 0 to 100", "result": 0, "unit": "%"}, {"measurement": "plant injury at 31 g/ha", "setting": "[15]; 31 g ai/ha, scale 0 to 100", "result": 0, "unit": "%"}, {"measurement": "plant injury at 62 g/ha", "setting": "[15]; 62 g ai/ha, scale 0 to 100 (0 no effect, 100 complete control), read-out: Wheat plant response rating", "result": 5, "unit": "%"}, {"measurement": "plant injury at 125 g/ha", "setting": "[15]; [17]", "result": 10, "unit": "%"}]}
